From patent US11510852B2 (THE ROYAL INSTITUTION FOR THE ADVANCEMENT OF …, priority 2019, dated 2022) come the findings set out here.

Experiment [1] is described as follows: UV visible spectroscopy of supernatant after addition of hydroxy-apatite powder. The class given is binding. Conditions: 306 nm MeSa, 272 nm thymol. On the procedure: (§1) To analyze how the different tested molecules (methyl salicylate, thymol and spearmint oil) interact with composite and the tooth structure UV Visible spectroscopy was used. Dilute solutions of the three tested molecules were prepared. […] The resulting solutions were analyzed in triplicates using UV visible spectrophotometer (Evolution 200 series, Thermo Scientific, Madison, USA) and the resulting absorbance peaks were plotted as control (FIG. 1). After this, equal weights of composite resin and hydroxy-apatite powders were added to equal volumes of the diluted solutions of the three tested molecules.
(§2) The characterization of the interaction between the staining components and both composite resin and the tooth structure was performed using UV visible spectroscopy which was chosen to characterize indirectly the insoluble powder; a method that is largely used in pharmaceutical industry. In this method, different weights of insoluble polymer are added to a known concentration of a solute with a clear fingerprint in UV-vis spectrum. After each addition, the filtered solutions are then analyzed using UV-vis spectrophotometer and the resultant effect on the UV spectrum is compared to the baseline readings.

The nature of experiment [2]: UV visible spectroscopy of supernatant after addition of composite resin powder. Format: binding. As to conditions: 306 nm methyl salicylate, 272 nm thymol. On the procedure: as §1, §2

Take `Cc1ccc(C(C)C)c(O)c1` [thymol]: the “change of main absorbance peak” value worked out at 14±3.3% in experiment [1] (0.3 g hydroxy-apatite), 10±9.2% in experiment [1] (0.5 g hydroxy-apatite) and 7±1.6% in experiment [1] (0.8 g hydroxy-apatite). For the same compound, the “decrease of main absorbance peak” value is reported as 47±17% in experiment [2] (0.3 g composite resin), 55±1.2% in experiment [2] (0.5 g composite resin) and 66±2.9% in experiment [2] (0.8 g composite resin).

Regarding `COC(=O)c1ccccc1O` [methyl salicylate], the “change of main absorbance peak” value in experiment [1] (0.3 g hydroxy-apatite) was determined as 13±22%; in experiment [1] (0.5 g hydroxy-apatite), 11±14%; in experiment [1] (0.8 g hydroxy-apatite) it was 1.1±15%. The “decrease of main absorbance peak” value in experiment [2] (0.3 g composite resin) is 37±3.9%; in experiment [2] (0.5 g composite resin), 38±25%; in experiment [2] (0.8 g composite resin), 85±12%.
